IC50 data for 6 compounds are collected here from patent US20240116985A1, “STAPLED PEPTIDES AND METHODS THEREOF” (priority 2020, published 2024).

This assay concerns the target T1, full-length beta-Catenin (Uniprot ID P35222) (Homo sapiens, UniProt P35222).
T1 construct: 10 nM full-length beta-Catenin (Uniprot ID P35222)
T1 sequence (P35222 1-781): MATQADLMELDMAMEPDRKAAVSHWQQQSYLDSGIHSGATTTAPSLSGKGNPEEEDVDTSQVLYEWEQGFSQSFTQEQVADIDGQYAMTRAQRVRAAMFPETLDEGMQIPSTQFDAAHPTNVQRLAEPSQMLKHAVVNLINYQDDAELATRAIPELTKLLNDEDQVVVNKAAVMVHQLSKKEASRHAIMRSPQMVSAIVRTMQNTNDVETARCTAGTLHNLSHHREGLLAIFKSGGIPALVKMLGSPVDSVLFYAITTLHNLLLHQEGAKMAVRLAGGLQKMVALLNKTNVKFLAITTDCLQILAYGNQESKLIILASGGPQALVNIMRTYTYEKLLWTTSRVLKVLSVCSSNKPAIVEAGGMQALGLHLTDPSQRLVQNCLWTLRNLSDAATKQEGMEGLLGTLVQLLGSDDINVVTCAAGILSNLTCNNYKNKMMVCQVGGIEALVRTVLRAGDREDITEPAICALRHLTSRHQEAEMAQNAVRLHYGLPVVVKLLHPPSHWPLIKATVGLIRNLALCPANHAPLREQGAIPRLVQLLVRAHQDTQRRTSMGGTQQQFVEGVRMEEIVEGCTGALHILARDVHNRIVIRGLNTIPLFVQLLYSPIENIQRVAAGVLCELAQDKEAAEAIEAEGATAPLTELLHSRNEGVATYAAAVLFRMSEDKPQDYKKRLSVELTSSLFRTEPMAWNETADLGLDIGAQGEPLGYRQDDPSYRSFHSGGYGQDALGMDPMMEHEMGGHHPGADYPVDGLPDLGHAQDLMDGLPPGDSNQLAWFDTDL
Nature of the assay: Fluorescence polarization IC50 (beta-catenin / 5FAM-TCF4 10-53 competition). The assay is classed as binding. The conditions noted are these: fluorescence polarization; read-out: beta-Catenin FP IC50.

Turning to `CC(=O)N1CCC[C@]12CC=CCCCC1(CCCC=CCCCOC(=O)N3CC[C@@](C(=O)N[C@@H](Cc4cccs4)C(=O)N[C@@H](Cc4csc5ccccc45)C(=O)N[C@@H](CCC(N)=O)C(N)=O)(C3)NC(=O)[C@H](CC(N)=O)NC(=O)[C@H](Cc3ccccc3)NC(=O)[C@H](C)NC(=O)[C@H](C)NC(=O)[C@H]([C@@H](C)O)NC(=O)[C@H](CC(N)=O)NC1=O)NC(=O)[C@H](CC(C)(C)C)NC(=O)[C@H](CC(=O)O)NC2=O` (stereo partly drawn) [I-1736, Ac-PL3-Asp-Npg-B5-Asn-Thr-Ala-Ala-Phe-Asn-PyrS2-2Thi-BztA-Gln-NH2], the half-inhibitory concentration (IC50) stood at 458 nM.
The same measure for `CC(=O)N1CCC[C@]12CC=CCCCC1(CCCC=CCCCOC(=O)N3CC[C@@](C(=O)N[C@@H](Cc4ccccc4C)C(=O)N[C@@H](Cc4csc5ccccc45)C(=O)N[C@@H](CCC(N)=O)C(N)=O)(C3)NC(=O)[C@H](CC(N)=O)NC(=O)[C@H](Cc3ccccc3)NC(=O)[C@H](C)NC(=O)[C@H](C)NC(=O)[C@H]([C@@H](C)O)NC(=O)[C@H](CC(N)=O)NC1=O)NC(=O)[C@H](CC(C)(C)C)NC(=O)[C@H](CC(=O)O)NC2=O` (stereo partly drawn) [I-1737, Ac-PL3-Asp-Npg-B5-Asn-Thr-Ala-Ala-Phe-Asn-PyrS2-2MeF-BztA-Gln-NH2]: 518 nM; for `CC(=O)N1CCC[C@]12CC=CCCCC1(CCCC=CCCCOC(=O)N3CC[C@@](C(=O)N[C@@H](Cc4ccccc4C(F)(F)F)C(=O)N[C@@H](Cc4csc5ccccc45)C(=O)N[C@@H](CCC(N)=O)C(N)=O)(C3)NC(=O)[C@H](CC(N)=O)NC(=O)[C@H](Cc3ccccc3)NC(=O)[C@H](C)NC(=O)[C@H](C)NC(=O)[C@H]([C@@H](C)O)NC(=O)[C@H](CC(N)=O)NC1=O)NC(=O)[C@H](CC(C)(C)C)NC(=O)[C@H](CC(=O)O)NC2=O` (stereo partly drawn) [I-1738, Ac-PL3-Asp-Npg-B5-Asn-Thr-Ala-Ala-Phe-Asn-PyrS2-2F3MeF-BztA-Gln-NH2]: 1060 nM.
Under `CC(=O)N1CCC[C@]12CC=CCCCC1(CCCC=CCCCOC(=O)N3CC[C@@](C(=O)N[C@@H](Cc4cccc(C)c4)C(=O)N[C@@H](Cc4csc5ccccc45)C(=O)N[C@@H](CCC(N)=O)C(N)=O)(C3)NC(=O)[C@H](CC(N)=O)NC(=O)[C@H](Cc3ccccc3)NC(=O)[C@H](C)NC(=O)[C@H](C)NC(=O)[C@H]([C@@H](C)O)NC(=O)[C@H](CC(N)=O)NC1=O)NC(=O)[C@H](CC(C)(C)C)NC(=O)[C@H](CC(=O)O)NC2=O` (stereo partly drawn) [I-1739, Ac-PL3-Asp-Npg-B5-Asn-Thr-Ala-Ala-Phe-Asn-PyrS2-3MeF-BztA-Gln-NH2] stands 3650 nM.
Under `CC(=O)N1CCC[C@]12CC=CCCCC1(CCCC=CCCCOC(=O)N3CC[C@@](C(=O)N[C@@H](Cc4ccsc4)C(=O)N[C@@H](Cc4csc5ccccc45)C(=O)N[C@@H](CCC(N)=O)C(N)=O)(C3)NC(=O)[C@H](Cc3c[nH]c4ccccc34)NC(=O)[C@H](Cc3ccccc3)NC(=O)[C@H](C)NC(=O)[C@H](C)NC(=O)[C@H]([C@@H](C)O)NC(=O)[C@H](CC(N)=O)NC1=O)NC(=O)[C@H](CC(C)(C)C)NC(=O)[C@H](CC(=O)O)NC2=O` (stereo partly drawn) [I-1741, Ac-PL3-Asp-Npg-B5-Asn-Thr-Ala-Ala-Phe-Trp-PyrS2-3Thi-BztA-Gln-NH2] stands 4390 nM; under `CC(=O)N1CCC[C@]12CC=CCCCC1(CCCC=CCCCOC(=O)N3CC[C@@](C(=O)N[C@@H](Cc4ccsc4)C(=O)N[C@@H](Cc4csc5ccccc45)C(N)=O)(C3)NC(=O)[C@H](CC(N)=O)NC(=O)[C@H](Cc3ccccc3)NC(=O)[C@H](C)NC(=O)[C@H](C)NC(=O)[C@H]([C@@H](C)O)NC(=O)[C@H](CC(N)=O)NC1=O)NC(=O)[C@H](CC(C)(C)C)NC(=O)[C@H](CC(=O)O)NC2=O` (stereo partly drawn) [I-1742, Ac-PL3-Asp-Npg-B5-Asn-Thr-Ala-Ala-Phe-Asn-PyrS2-3Thi-BztA-NH2], 867 nM.
